Holding throughout (assay): NCI anticancer screen, dose series, 48 h
Test [1] concerns HCT-116 colon.
For test [2], the system named is U251 CNS.
Test [3] relates to CCRF-CEM leukemia.
The test system of test [4] is BT-549 breast.
Test [5] relates to MOLT-4 leukemia.
Test [6] concerns LOX IMVI melanoma.
Test [7] has as its system HT29 colon.
In test [8] the test system is NCI/ADR-RES ovarian.

“And” between values parts separate entries of the source, which are not always exact repeats. Equal values may be shown once.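 96-well plates; 48 h exposure; 5 concentrations. Endpoints by linear interpolation between flanking doses. Not reached: highest tested concentration assigned. Here, GI50 denotes the concentration required for 50% inhibition of growth. TGI denotes the concentration required for complete inhibition of growth.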

On to `Oc1ccc(NCc2nc3ccccc3[nH]2)cc1`, for which the GI50 in test [1] is 41.8 µM; in test [2] it was 28.2 µM; in test [3] it was more than 100 µM; in test [4] it was 50.1 µM; in test [5] it was more than 100 µM; in test [6], 73.9 µM. Further, the GI50 in test [7] and in test [8] was more than 100 µM each time. The TGI in test [1], in test [2], in test [3], in test [4], in test [5] and in test [6] was more than 100 µM in each case. Also, the TGI in test [7] and in test [8] was more than 100 µM in each case.
With `Nc1nc(Cl)c2ncn(Cc3ccc(C45CC6CC(CC(C6)C4)C5)c(O)c3)c2n1`, the GI50 in test [1] is 1.1 µM; in test [2], 3.09 µM; in test [3], 0.809 µM; in test [4], 6.82 µM; in test [5], 1.25 µM; in test [6] it was 2.38 µM. The figures for the GI50 in test [7] and in test [8] were 4.04 µM and 3.15 µM, respectively. Also, the TGI in test [1] is 3.15 µM; in test [2], 12.9 µM; in test [3] it was 10.6 µM; in test [4], 25.2 µM; in test [5], 16.2 µM; in test [6], 13 µM. The figures for the TGI in test [7] and in test [8] were 46.7 µM and 16.4 µM, respectively.
As to `Oc1ccc2ccccc2c1N=Nc1nccs1`, the GI50 is 0.213 µM in test [1]; 0.29 µM in test [2]; 0.0932 µM in test [3]; 4.75 µM in test [4]; 0.186 µM in test [5]; 0.328 µM in test [6]. Besides, the GI50 in test [7] was 1.72 µM; in test [8], 0.393 µM. The TGI was 6.09 µM in test [1]; 13.4 µM in test [2]; 32.3 µM in test [4]; more than 46.9 µM in test [5]; 17.5 µM in test [6]; 23.3 µM in test [7].
As to `COC1/C=C\C=C(/C)C(=O)NC2=CC(=O)C(=O)C(=C2O)CC(C)CC(OC)C(O)C(C)/C=C(\C)C1OC(N)=O` (stereo not drawn), the TGI in test [1] was 14.4 µM; in test [2], more than 40.3 µM; in test [3], 25.8 µM; in test [4] it was more than 100 µM; in test [5], more than 52.3 µM; in test [6], 13.9 µM. Also, the TGI in test [7] was 17.8 µM; in test [8] it was more than 100 µM.
`COc1cc(C2=NOC(c3cc(OC)c(OC)c(OC)c3)C2)ccc1OCCCCOc1cc2c(cc1OC)C(=O)N1CCC[C@H]1C=N2` (stereo partly drawn): the GI50 in test [1] is 0.216 µM; in test [2] it was 0.315 µM; in test [3], 0.164 µM; in test [4], 0.156 µM; in test [5] it was 0.299 µM; in test [6] it was 0.215 µM. For the same molecule, the GI50 in test [7] was 0.358 µM; in test [8], 2.82 µM. Moreover, the TGI was 0.575 µM in test [1]; 1.1 µM in test [2]; 0.466 µM in test [3]; 0.385 µM in test [4]; 0.495 µM in test [6]; more than 33.2 µM in test [7]. In test [8], this molecule returned a TGI of 9.35 µM.
`FC(F)(F)c1cccc(Nc2nccc(-c3cnn4nc(-c5ccccc5)ccc34)n2)c1`: the GI50 in test [1] was 5.92 µM; in test [2], 4.58 µM; in test [3], more than 17.9 µM; in test [4], 18.8 µM; in test [5] it was more than 16.5 µM; in test [6] it was 6.18 µM. In addition, the GI50 in test [7] is 6.88 µM; in test [8] it was 8.37 µM. Further, the TGI in test [1] is 14.8 µM; in test [2] it was 10.1 µM; in test [3] it was more than 25 µM; in test [4], more than 25 µM; in test [5], more than 25 µM; in test [6], more than 17.7 µM. The TGI in test [7] is more than 18.4 µM; in test [8], more than 21.7 µM.
As for `COc1cc2c(c(O)c1Br)C(=O)c1c(O)cc(C[C@H](C)O)cc1[C@H]2[C@H]1c2cc(C[C@H](C)O)cc(O)c2C(=O)c2c1cc(OC)c(Br)c2O`, the GI50 in test [1] was 3.77 µM and 5.49 µM; in test [2] it was 2.97 µM and 5.25 µM; in test [3], 3.86 µM and 14.3 µM; in test [4], 10.9 µM and 7.55 µM; in test [5], 3.54 µM and 6.39 µM; in test [6], 6.57 µM and 11.4 µM. The GI50 in test [7] is 2.39 µM and 4.83 µM; in test [8], 17.5 µM and 28.5 µM. Besides, the TGI in test [1] is 67.5 µM and 63.1 µM; in test [2] it was 23.1 µM and 39.2 µM; in test [3], 67.5 µM and 92.9 µM; in test [4], 63.5 µM and 45.2 µM; in test [5], 67.5 µM and > 100 µM; in test [6], 16.2 µM and 34.4 µM. Further, the TGI in test [7] is 67.5 µM and > 100 µM; in test [8], 59.9 µM and > 100 µM.
Turning to `O=C1c2cc(Cl)ccc2S(=O)(=O)c2c(NCCCNCCO)nc3ccccc3c21`, the GI50 was 1.49 µM in test [1]; 1.62 µM in test [2]; 0.648 µM in test [3]; 3.99 µM in test [4]; 1.82 µM in test [5]; 1.58 µM in test [6]. Further, the GI50 was 1.4 µM in test [7] and 3.05 µM in test [8]. The TGI in test [1] is 3.26 µM; in test [2], 3.18 µM; in test [3], 2.74 µM; in test [4], 14.6 µM; in test [5], 5.63 µM; in test [6] it was 2.95 µM. Also, the TGI in test [7] was 2.94 µM; in test [8], 10.8 µM.
In the case of `CCOc1cc2c(Cl)ncnc2c(OCC)c1OCC`, the GI50 in test [1] was 3.39 µM; in test [2], 7 µM; in test [3] it was 2.6 µM; in test [4] it was 4.82 µM; in test [5], 2.87 µM; in test [6], 3.39 µM. For the same molecule, the GI50 was 7.59 µM in test [7] and 25.6 µM in test [8]. The TGI in test [1] was found to be 11.9 µM; in test [2], 19.6 µM; in test [3], 6.85 µM; in test [4] it was 14.5 µM; in test [5] it was 10.4 µM; in test [6], 10 µM. The TGI in test [7] was 32.9 µM; in test [8], more than 64.3 µM.
As for `CC[C@@]1(O)C(=O)OCc2c1cc1n(c2=O)Cc2c-1nc1cc3c(cc1c2CCl)OCO3`, the GI50 is less than 0.01 µM in test [1]; less than 0.01 µM in test [2]; less than 0.01 µM in test [3]; 0.106 µM in test [4]; less than 0.01 µM in test [5]; less than 0.01 µM in test [6]. Also, the GI50 is 0.0271 µM in test [7] and less than 0.01 µM in test [8]. In addition, the TGI in test [1] is 0.294 µM; in test [2], 1.9 µM; in test [4], 3.99 µM; in test [5], less than 0.038 µM; in test [6], 0.426 µM; in test [7] it was more than 22.3 µM. For the same molecule, the TGI in test [8] came to 0.133 µM.

The record behind these values is PubChem BioAssay (NCI).
